Square brackets hold non-standard residues; d marks the D form. Peptide text beside a SMILES is read from it. * marks the point of attachment. Dolaproine = CO[C@@H]([C@@H]1CCCN1)[C@@H](C)C(=O)O; Dil = CC[C@H](C)[C@H](NC)[C@@H](CC(=O)O)OC; X1 = C[C@@H](N*)[C@@H](O)c1ccccc1; NMeV = CN[C@H](C(=O)O)C(C)C
Experiments:
Mcl-1 = Mcl-1 protein level / degradation in mitotic arrest (western blot of synchronized cells); format: cell-based, human; details: HeLa released into paclitaxel; for maintenance of mitotic arrest (cdc27 phosphorylation): CGP74514A 2 μM or roscovitine 2.5 μM; for Mcl-1 degradation in mitotic arrest: CGP74514A 2 μM, FR180204 2 μM, SP600125 25 μM, SB203580 2 μM added on entry into mitotic arrest
Description: The viability of cancer cell lines, and MEFs in which genes encoding IAPs had been knocked out, was analysed by using the CellTiter-Glo Luminescent Cell Viability Assay® (Promega). Cells were treated in triplicate with anti-tubulin agents for the indicated times, using dimethylsulphoxide treatment as a control. The viability of BCL2-family-member-null MEFs was analysed by propidium iodide staining, as described previously (Chen, L. et al. (2005) Molecular cell 17:393-403), after treatment with anti-tubulin agents for 48 h. Cell synchronization was achieved by culture either in serum-free medium for 12-16 h or in medium containing 2 mM thymidine for 18-24 h, release from the thymidine block with three washes in PBS, followed by culture for 8-12 h in complete growth media (compositions are described in the Supplementary Information). Cells then underwent a second thymidine block for 16-20 h, three further washes in PBS and release into complete medium containing the indicated reagents. To block MCL1 degradation, […] MG132 was added as cells entered mitotic arrest, as assessed by visual inspection. See the Examples for full methods.
(§1) Western blotting was performed essentially as described (Wertz, I. E. et al. (2004) Science (New York, N.Y 303:1371-1374). In brief, cells were lysed in corrected FLAG elution buffer (CFEB) (19.17 mM Tris (pH 7.5), 916.7 μM MgCl2, 92.5 mM NaCl and 0.1% Triton X-100) with protease and phosphatase inhibitors; in some cases 6 M urea was added. Cleared lysates were quantitated and equal amounts of proteins were reduced, alkylated, separated by SDS-PAGE, and transferred onto PVDF membranes (Invitrogen) following standard procedures. Western blotting was performed as recommended by the respective antibody manufacturers. Patient tissue and xenograft samples were lysed in 5× volume of CFEB with protease inhibitors using Fast prep 24 (MP Biologicals). Tissue lysates were cleared and 40 μg total protein was prepared for western blotting analysis as described above. Immunoprecipitations were performed with the indicated antibodies as described (Willis, S. N. et al. (2007) Science (New York, N.Y 315:856-859; Wertz, I. E. et al. (2004) Science (New York, N.Y 303:1371-1374). PP2A activity was performed on PP2A or Mcl-1 immunoprecipitates as recommended by the manufacturer (Upstate)

myc-Mcl-1 / FLAG-FBW7 = test: Recruitment of myc-Mcl-1 to FLAG-FBW7 in mitotic arrest (immunoprecipitation, HeLa cells); format: cell-based, human; details: HeLa released into paclitaxel; agent 1 hour then 3 hour 25 μM MG-132; SP600125 25 μM, SB203580 2.65 μM, CGP74514A, roscovitine 2.5 μM
Description: The indicated constructs were expressed in HeLa cells with or without scramble or cdc20 RNAi, and then synchronized and released into paclitaxel. […] Cells were subsequently collected and processed as indicated.
as §1

[1] = test system: Granta-519, HCT-116 and HeLa cells; test: Mitotic arrest and Mcl-1 degradation with MMAE (FIG. 5); format: cell-based

CCn1cnc2c(Nc3cccc(Cl)c3)nc(N[C@@H]3CCCC[C@@H]3N)nc21 [CGP74514A]
maintenance of mitotic arrest (cdc27 phosphorylation) (Mcl-1): drives cells out of mitotic arrest | Mcl-1 degradation in mitotic arrest (Mcl-1): attenuate Mcl-1 degradation | recruitment of myc-Mcl-1 to FLAG-FBW7 in mitotic arrest (myc-Mcl-1 / FLAG-FBW7): attenuates recruitment of myc-Mcl-1 to FLAG-FBW7

CC[C@H](C)[C@@H]([C@@H](CC(=O)N1CCC[C@H]1[C@H](OC)[C@@H](C)C(=O)N[C@H](C)[C@@H](O)c1ccccc1)OC)N(C)C(=O)[C@@H](NC(=O)[C@@H](NC)C(C)C)C(C)C [MMAE, (S)—N-((3R,4S,5S)-1-((S)-2-((1R,2R)-3-(((1S,2R)-1-hydroxy-1-phenylpropan-2-yl)amino)-1-methoxy-2-methyl-3-oxopropyl)pyrrolidin-1-yl)-3-methoxy-5-methyl-1-oxoheptan-4-yl)-N,3-dimethyl-2-((S)-3-methyl-2-(methylamino)butanamido)butanamide] (H-[NMeV]V[Dil][Dolaproine]-X1)
mitotic arrest (phospho-cdc27) [1]: promotes mitotic arrest | Mcl-1 degradation ([1]; subsequent to mitotic arrest): Mcl-1 degradation

C[S+]([O-])c1ccc(-c2nc(-c3ccncc3)c(-c3ccc(F)cc3)[nH]2)cc1 (stereo not drawn) [SB203580]
Mcl-1 degradation in mitotic arrest (Mcl-1): attenuate Mcl-1 degradation | recruitment of myc-Mcl-1 to FLAG-FBW7 in mitotic arrest (myc-Mcl-1 / FLAG-FBW7): attenuates recruitment of myc-Mcl-1 to FLAG-FBW7

CC[C@H](CO)Nc1nc(NCc2ccccc2)c2ncn(C(C)C)c2n1 [roscovitine]
maintenance of mitotic arrest (cdc27 phosphorylation) (Mcl-1): drives cells out of mitotic arrest | recruitment of myc-Mcl-1 to FLAG-FBW7 in mitotic arrest (myc-Mcl-1 / FLAG-FBW7): attenuates recruitment of myc-Mcl-1 to FLAG-FBW7

From patent US20160136295A1, “BIOMARKERS FOR TREATMENT WITH ANTI-TUBULIN CHEMOTHERAPEUTIC COMPOUNDS” (GENENTECH, INC., priority 2012, published 2016)
